Source: PubChem BioAssay (NCI)
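Values below derive from 48-hour exposures of cells grown in 96-well plates, with endpoints linearly interpolated between the two concentrations bracketing the appropriate inhibition level. GI50 is the concentration that inhibits growth by half. TGI denotes the concentration required for complete inhibition of growth.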

What was measured:
Test in all cases: NCI anticancer screen, dose series, 48 h
MCF7 breast = system: MCF7 breast
HCT-15 colon = system: HCT-15 colon
MALME-3M melanoma = system: MALME-3M melanoma
SW-620 colon = system: SW-620 colon
T-47D breast = system: T-47D breast
786-0 renal = system: 786-0 renal
NCI/ADR-RES ovarian = system: NCI/ADR-RES ovarian
SK-MEL-2 melanoma = system: SK-MEL-2 melanoma
UO-31 renal = system: UO-31 renal
NCI-H226 lung = system: NCI-H226 lung

| Structure (SMILES) | GI50 (MCF7 breast) [µM] | TGI (MCF7 breast) [µM] | GI50 (HCT-15 colon) [µM] | TGI (HCT-15 colon) [µM] | GI50 (MALME-3M melanoma) [µM] | TGI (MALME-3M melanoma) [µM] | GI50 (SW-620 colon) [µM] | TGI (SW-620 colon) [µM] | GI50 (T-47D breast) [µM] | TGI (T-47D breast) [µM] | GI50 (786-0 renal) [µM] | TGI (786-0 renal) [µM] | GI50 (NCI/ADR-RES ovarian) [µM] | TGI (NCI/ADR-RES ovarian) [µM] | GI50 (SK-MEL-2 melanoma) [µM] | TGI (SK-MEL-2 melanoma) [µM] | GI50 (UO-31 renal) [µM] | TGI (UO-31 renal) [µM] | GI50 (NCI-H226 lung) [µM] | TGI (NCI-H226 lung) [µM] |
| --- | --- | --- | --- | --- | --- | --- | --- | --- | --- | --- | --- | --- | --- | --- | --- | --- | --- | --- | --- | --- |
| C=C1C(O)C2C(=C(CC(C)C)C13CC3)C(=O)C(C)(C)C2OC (centres undefined) | > 100 | > 100 | > 100 | > 100 | > 100 | > 100 | > 100 | > 100 | > 100 | > 100 | > 100 | > 100 | > 100 | > 100 | > 100 | > 100 | > 100 | > 100 | – | – |
| NC(N)=N/N=C/c1c(-c2cc(Cl)sc2Cl)nc2n1CCS2 | 10.6 | 25.3 | 9 | 16.6 | – | – | 10.5 | 20.5 | – | – | 8.12 | 15.6 | > 50 | > 50 | 22.6 | > 50 | 17.3 | > 50 | 8.31 | 16.8 |
| c1ccc2c(NCCCCCCCCNc3c4ccccc4nc4ccccc34)c3ccccc3nc2c1 | – | – | – | 2.48 | – | 2.63 | – | 1.71 | – | 3.2 | – | 1.95 | – | 41.9 | – | 2.23 | – | 2.76 | – | 2.59 |
| CN(C)CCNc1cccc2sc3ccc(O)cc3c(=O)c12 | 1.14 | 2.96 | 1.43 | 5.09 | 1.59 | 3.13 | 1.16 | 3.44 | 2.56 | 12.8 | 2.23 | 6.28 | 3.14 | 12.7 | – | – | 1.16 | 3.58 | 5.94 | 23.1 |
| OC1CCC(Oc2cccc3cnc(Nc4ccc5nc[nH]c5c4)nc23)CC1 (centres undefined) | 0.217 | 3.1 | 0.508 | 16.7 | 1.03 | 5.01 | 0.407 | 16.5 | 1.03 | 14.4 | 0.336 | 10.1 | 1.6 | 13 | 0.873 | 2.93 | 0.227 | 1.88 | – | – |
| CCOC(=O)/C=C/c1ccc(C(=O)OCC)[nH]1 | 3.06 | > 100 | 3.11 | > 100 | 2.89 | > 100 | 1.29 | > 100 | 6.32 | > 100 | 7.85 | > 100 | 3.3 | > 100 | – | – | 4 | > 100 | 15.4 | > 100 |
| CCc1cccc(C)c1NC(=O)CC1Sc2ccccc2NC1=O (centres undefined) | – | – | – | > 100 | – | > 100 | – | > 100 | – | – | – | > 100 | – | – | – | > 100 | – | > 100 | – | 64.6 |
| CN(C)CN1C(=O)S/C(=C2\C(=O)N(CN(C)C)c3ccccc32)C1=O | – | > 100 | – | > 100 | – | – | – | 93.1 | – | > 100 | – | > 100 | – | > 100 | – | > 100 | – | 91.8 | – | > 100 |
| CC[C@@]1(OC(=O)CCC(=O)O)C(=O)OCc2c1cc1n(c2=O)Cc2cc3ccccc3nc2-1 | – | – | – | 11.7 | – | 6.78 | – | 16.8 | – | 2.62 | – | 0.394 | – | 0.791 | – | 4.96 | – | 0.493 | – | 3.13 |
| Cc1ccc(C)c(NC(=O)/C(=N\NC(N)=S)C(C#N)c2ccccc2)c1 (centres undefined) | – | – | – | > 100 | – | > 100 | – | > 100 | – | – | – | > 100 | – | – | – | > 100 | – | > 100 | – | > 100 |
| CCCCCCCCCCCCC(SCCNC(=O)CCNC(=O)C(O)C(C)(C)COP(=O)(O)OP(=O)(O)OCC1OC(n2cnc3c(N)ncnc32)C(O)C1OP(=O)(O)O)C(=O)NCC(N)=O (centres undefined) | – | – | – | > 100 | – | > 100 | – | > 100 | – | – | – | > 100 | – | – | – | > 100 | – | > 100 | – | > 100 |
| Cc1ccc(S(=O)(=O)ON/N=C2/C3OC3[C@@H]3CCCC[C@H]23)cc1 (some centres undefined) | – | – | – | > 100 | – | > 100 | – | > 100 | – | – | – | > 100 | – | – | – | > 100 | – | > 100 | – | > 100 |
| Cc1c(C(=O)CC(=O)C(=O)NC2C3CC4CC(C3)CC2C4)[n+](=O)c2ccccc2n1[O-] (centres undefined) | – | – | – | > 100 | – | > 100 | – | > 100 | – | – | – | > 100 | – | – | – | > 100 | – | > 100 | – | > 100 |
| O=C1/C(=C\c2cccs2)Oc2ccccc21 | – | > 100 | – | > 100 | – | – | – | > 100 | – | 10.8 | – | > 100 | – | > 100 | – | > 100 | – | 83.3 | – | > 100 |
| c1ccc(COc2ccc3[nH]c4c(ncc5[nH]c6ccccc6c54)c3c2)cc1 | – | – | – | 14.9 | – | 18.2 | – | 32.3 | – | – | – | 18.5 | – | – | – | 30.8 | – | 32.8 | – | 30.9 |
| COc1ccc([N+](=O)[O-])c2c(NCC(O)CO)ccnc12 (centres undefined) | – | > 100 | – | 35.1 | – | 44.7 | – | > 100 | – | > 100 | – | > 100 | – | – | – | 71.9 | – | > 100 | – | – |
| O=C(O)c1nnsc1COCc1ccccc1 | – | > 100 | – | > 100 | – | > 100 | – | > 100 | – | > 100 | – | > 100 | – | > 100 | – | > 100 | – | > 100 | – | – |
| O=c1c(OC/C(=N/O)c2ccccc2)c(-c2ccccc2)oc2ccccc12 | – | – | 17.1 | > 50 | – | – | 11.4 | 25.4 | 14.8 | 38.1 | 19 | > 50 | 14 | 42 | 16.4 | > 50 | 19.2 | > 50 | 21.3 | > 50 |
| O=C(N=Nc1c(O)[nH]c2ccccc12)c1ccccc1O | – | – | – | > 100 | – | > 100 | – | > 100 | – | – | – | > 100 | – | – | – | 63.6 | – | 79.9 | – | > 100 |
| O=c1oc2c3ccc4ccccc4c3n(Cc3nc4ccccc4[nH]3)c2c2ccccc12 | – | – | – | > 100 | – | > 100 | – | > 100 | – | – | – | > 47.9 | – | – | – | > 100 | – | > 100 | – | > 100 |
| O=C(N/N=C/c1ccc(F)cc1)c1[nH]c2ccc(I)cc2c1-c1ccccc1 | 0.339 | 18.6 | 0.39 | > 58.3 | – | – | 0.4 | > 100 | – | – | 0.475 | 10.7 | 0.274 | 0.769 | 10.9 | > 100 | 1.98 | 52.6 | 2.24 | > 66.8 |
